This note sets out measurements from patent publication US20090117154A1, “SYNTHETIC POLYVALENT CARBOHYDRATES AS COMPONENTS OF MICROBICIDES” (priority 2005, published 2009).

This assay has as its target T1, DC-SIGN (Homo sapiens, UniProt Q9NNX6).
T1 construct: made in house
The experiment in a line: Inhibition of the binding of soluble DC-SIGN to immobilized HIV-1 Bal gp120 (plate ELISA). As to conditions: soluble DC-SIGN/mAb complex, gp120 captured on D7324 plate; preliminary assay; FIG. 3. As for the experimental part:
Preliminary assays were conducted on the inhibition of the synthetic polyvalent compounds against the binding between HIV-1 gp120 and DC-SIGN. Specifically, plates were coated with 5 ug/mL D7324 anti-gp120 capture antibody, in 1×PBS O/N at RT. Blocking buffer was 5% BSA in 1×TBST+1 mM CaCL2, assay/dilution buffer was 2% BSA in 1×TBST+1 mM CaCL2 and wash buffer was 1×TBST+1 mM CaCL2 (4 washes, 200 uL per well). Gp120 (CHOK1, uQuant) was captured on the D7324 plate at saturation, 500 ng/mL in assay buffer for 2 hour at RT. sDC-SIGN supernatant (Nov. 6, 2004) was supplemented with 1 mM CaCL2 and pre-complexed with 3 ug/mL anti-DC-SIGN mAb (120507, Sigma) for 1 hour at RT. Mannose products were titered 1:2 in assay buffer (Starts 1:4 in column 2), sDC-SIGN/mAb complexes were added to the titered mannose at about 1:5 (155 uL mannose+45 uL sDC-SIGN/mAb) (no sDC-SIGN in column 12), sDC-SIGN/mAb complexes mixed with mannose compounds were allowed to bind to the Gp120 plate for 1 hour at RT. Any bound sDC-SIGN/mAb complexes were detected with goat anti-mouse-IgG-HRP (Axcell) 1:2000 in assay buffer, absorbed with 2% sheep serum.
(In an ELISA, binding on a coated surface is turned into a signal by an enzyme label.)

T1 sequence (Q9NNX6 59-404): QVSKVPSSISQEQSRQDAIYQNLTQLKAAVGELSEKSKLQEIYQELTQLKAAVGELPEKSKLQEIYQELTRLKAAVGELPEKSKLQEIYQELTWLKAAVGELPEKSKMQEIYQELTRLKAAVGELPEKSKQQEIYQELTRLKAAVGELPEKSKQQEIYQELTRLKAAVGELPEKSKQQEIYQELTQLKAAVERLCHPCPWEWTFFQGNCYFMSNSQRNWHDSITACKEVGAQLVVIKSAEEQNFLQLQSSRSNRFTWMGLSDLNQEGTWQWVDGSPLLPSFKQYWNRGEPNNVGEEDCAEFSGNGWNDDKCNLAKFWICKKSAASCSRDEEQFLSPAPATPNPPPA

On to `CC(=O)N[C@@H]1[C@@H](O)[C@H](O[C@@H]2O[C@H](CO)[C@@H](O[C@@H]3O[C@H](CO[C@H]4O[C@H](CO[C@H]5O[C@H](CO)[C@@H](O)[C@H](O)[C@@H]5O[C@H]5O[C@H](CO)[C@@H](O)[C@H](O)[C@@H]5O)[C@@H](O)[C@H](O[C@H]5O[C@H](CO)[C@@H](O)[C@H](O)[C@@H]5O[C@H]5O[C@H](CO)[C@@H](O)[C@H](O)[C@@H]5O)[C@@H]4O)[C@@H](O)[C@H](O[C@H]4O[C@H](CO)[C@@H](O)[C@H](O)[C@@H]4O[C@H]4O[C@H](CO)[C@@H](O)[C@H](O)[C@@H]4O[C@H]4O[C@H](CO)[C@@H](O)[C@H](O)[C@@H]4O)[C@@H]3O)[C@H](O)[C@H]2NC(C)=O)[C@@H](CO)O[C@H]1NC(=O)C[C@H](N)C(=O)O` [Man9, Man9GlcNAc2Asn], for which the “inhibition of the binding of soluble DC-SIGN to immobilized gp120 (in words)” value is “much better than the disaccharide and monosaccharide in inhibition”.
